Data on eleven cell lines can be found in the supplement of paper PMC10307832.

Holding throughout (assay): relative viability (nuclei count vs DMSO), 5 days (fraction); higher = more cells survive
Compound in experiment [1]: CC(C)(C)c1cc(NC(=O)Nc2ccc(-c3cn4c(n3)sc3cc(OCCN5CCOCC5)ccc34)cc2)no1 [Quizartinib] + Cc1nc(NC(=O)N2CCC[C@H]2C(N)=O)sc1-c1ccnc(C(C)(C)C(F)(F)F)c1 [Alpelisib] (partner 2 µM)
In outline:
(§1)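 Values are medians from duplicate plates. Each reflects relative viability, defined as the nuclei count of treated wells over that of vehicle wells. Lung cancer cell lines in 1536-well plates were pin-tool dosed one day after seeding with one drug alone or with a fixed anchor-drug dose plus five library-drug doses (not always all listed) in √10 steps, then fixed, stained and imaged at 4× after 5 days.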

Compound in experiment [2]: COCC[n+]1c2c(n(Cc3cnccn3)c1C)C(=O)c1ccccc1C2=O [YM155] + O=C(CCCCCCC(=O)Nc1ccccc1)NO [Vorinostat] (partner 1 µM)
In a few lines: as §1

Compound in experiment [3]: CC(C)(C)c1cc(NC(=O)Nc2ccc(-c3cn4c(n3)sc3cc(OCCN5CCOCC5)ccc34)cc2)no1 [Quizartinib] + N=C(N)NC(=N)NCCc1ccccc1 [Phenformin] (partner 250 µM)
In a few lines:
as §1

Compound in experiment [4]: CC(C)(C)c1cc(NC(=O)Nc2ccc(-c3cn4c(n3)sc3cc(OCCN5CCOCC5)ccc34)cc2)no1 [Quizartinib] + CC(=O)Nc1cccc(-n2c(=O)n(C3CC3)c(=O)c3c(Nc4ccc(I)cc4F)n(C)c(=O)c(C)c32)c1 [Trametinib] (partner 0.02 µM)
In outline: as §1

Take LCLC-103H: the relative viability in experiment [1] (first compound 0.001 µM) worked out at 1.01; in experiment [1] (first compound 0.003162 µM), 0.533; in experiment [1] (first compound 0.01 µM), 0.94; in experiment [1] (first compound 0.03162 µM), 1.04; in experiment [1] (first compound 0.1 µM) it was 0.943; in experiment [2] (first compound 0.002 µM) it was 0.732. Besides, the relative viability in experiment [2] (first compound 0.006325 µM) was 0.824; in experiment [2] (first compound 0.02 µM) it was 0.864; in experiment [2] (first compound 0.06325 µM), 0.802; in experiment [3] (first compound 0.001 µM), 0.306; in experiment [3] (first compound 0.003162 µM), 0.276; in experiment [3] (first compound 0.01 µM) it was 0.341. Moreover, the relative viability in experiment [3] (first compound 0.03162 µM) was 0.337; in experiment [3] (first compound 0.1 µM), 0.361; in experiment [4] (first compound 0.001 µM), 0.658; in experiment [4] (first compound 0.003162 µM), 0.645; in experiment [4] (first compound 0.01 µM) it was 0.664; in experiment [4] (first compound 0.03162 µM), 0.712. Further, the relative viability in experiment [4] (first compound 0.1 µM) amounted to 0.694.

Take LK-2: the relative viability in experiment [1] (first compound 0.001 µM) turned out to be 1.14; in experiment [1] (first compound 0.003162 µM), 1.08; in experiment [1] (first compound 0.01 µM), 1.04; in experiment [1] (first compound 0.03162 µM), 1.03; in experiment [1] (first compound 0.1 µM), 1.06; in experiment [2] (first compound 0.002 µM) it was 0.304. The relative viability in experiment [2] (first compound 0.006325 µM) turned out to be 0.139; in experiment [2] (first compound 0.02 µM), 0.388; in experiment [2] (first compound 0.06325 µM), 0.305; in experiment [3] (first compound 0.001 µM) it was 0.243; in experiment [3] (first compound 0.01 µM), 0.47; in experiment [3] (first compound 0.03162 µM), 0.138. For the same cell line, the relative viability in experiment [3] (first compound 0.1 µM) was found to be 0.108; in experiment [4] (first compound 0.001 µM) it was 0.796; in experiment [4] (first compound 0.003162 µM) it was 0.671; in experiment [4] (first compound 0.01 µM), 0.801; in experiment [4] (first compound 0.03162 µM), 0.765; in experiment [4] (first compound 0.1 µM), 0.789.

NCI-H522: the relative viability in experiment [2] (first compound 0.002 µM) was 0.846; in experiment [2] (first compound 0.006325 µM), 0.78; in experiment [2] (first compound 0.02 µM), 0.933; in experiment [2] (first compound 0.06325 µM), 0.932; in experiment [3] (first compound 0.001 µM), 0.591; in experiment [3] (first compound 0.003162 µM), 0.652. The relative viability in experiment [3] (first compound 0.01 µM) is 0.645; in experiment [3] (first compound 0.03162 µM), 0.622; in experiment [3] (first compound 0.1 µM), 0.542; in experiment [4] (first compound 0.001 µM), 0.688; in experiment [4] (first compound 0.003162 µM), 0.741; in experiment [4] (first compound 0.01 µM), 0.796. Moreover, the relative viability was determined as 0.53 in experiment [4] (first compound 0.03162 µM) and 0.727 in experiment [4] (first compound 0.1 µM).

NCI-H1299: the relative viability came out at 1.01 in experiment [1] (first compound 0.003162 µM), 1.11 in experiment [1] (first compound 0.01 µM), 1.06 in experiment [1] (first compound 0.03162 µM) and 0.986 in experiment [1] (first compound 0.1 µM).

On to NCI-H1563, for which the relative viability in experiment [1] (first compound 0.001 µM) amounted to 0.893; in experiment [1] (first compound 0.003162 µM), 0.871; in experiment [1] (first compound 0.01 µM) it was 0.945; in experiment [1] (first compound 0.1 µM), 0.826; in experiment [3] (first compound 0.001 µM) it was 0.648; in experiment [3] (first compound 0.003162 µM) it was 0.708. Further, the relative viability is 0.656 in experiment [3] (first compound 0.01 µM), 0.514 in experiment [3] (first compound 0.03162 µM) and 0.533 in experiment [3] (first compound 0.1 µM).

With NCI-H1623, the relative viability in experiment [3] (first compound 0.001 µM) came to 0.455; in experiment [3] (first compound 0.003162 µM), 0.645; in experiment [3] (first compound 0.01 µM), 0.599; in experiment [3] (first compound 0.03162 µM) it was 0.595; in experiment [3] (first compound 0.1 µM), 0.634.

As for NCI-H1650, the relative viability worked out at 0.545 in experiment [2] (first compound 0.002 µM); 0.427 in experiment [2] (first compound 0.006325 µM); 0.468 in experiment [2] (first compound 0.02 µM); 0.3 in experiment [2] (first compound 0.06325 µM); 0.418 in experiment [3] (first compound 0.001 µM); 0.585 in experiment [3] (first compound 0.003162 µM). Further, the relative viability in experiment [3] (first compound 0.01 µM) turned out to be 0.382; in experiment [3] (first compound 0.1 µM), 0.417; in experiment [4] (first compound 0.001 µM), 0.608; in experiment [4] (first compound 0.003162 µM), 0.662; in experiment [4] (first compound 0.01 µM), 0.556; in experiment [4] (first compound 0.1 µM), 0.564.

In the case of NCI-H1703, the relative viability was 0.34 in experiment [1] (first compound 0.001 µM); 0.196 in experiment [1] (first compound 0.003162 µM); 0.209 in experiment [1] (first compound 0.01 µM); 0.182 in experiment [1] (first compound 0.03162 µM); 0.22 in experiment [1] (first compound 0.1 µM).

Turning to NCI-H1792, the relative viability in experiment [1] (first compound 0.001 µM) was found to be 0.799; in experiment [1] (first compound 0.003162 µM), 0.667; in experiment [1] (first compound 0.01 µM), 0.711; in experiment [1] (first compound 0.03162 µM) it was 0.499; in experiment [1] (first compound 0.1 µM), 0.703; in experiment [3] (first compound 0.001 µM), 0.259. For the same cell line, the relative viability in experiment [3] (first compound 0.003162 µM) worked out at 0.2; in experiment [3] (first compound 0.01 µM), 0.244; in experiment [3] (first compound 0.03162 µM), 0.346; in experiment [3] (first compound 0.1 µM), 0.243; in experiment [4] (first compound 0.001 µM), 0.374; in experiment [4] (first compound 0.003162 µM), 0.429. In addition, the relative viability is 0.412 in experiment [4] (first compound 0.01 µM), 0.457 in experiment [4] (first compound 0.03162 µM) and 0.293 in experiment [4] (first compound 0.1 µM).

As to NCI-H2342, the relative viability in experiment [2] (first compound 0.002 µM) was 0.717; in experiment [2] (first compound 0.006325 µM), 0.724; in experiment [2] (first compound 0.02 µM) it was 0.705; in experiment [2] (first compound 0.06325 µM) it was 0.704; in experiment [3] (first compound 0.001 µM), 0.595; in experiment [3] (first compound 0.003162 µM), 0.629. Besides, the relative viability stood at 0.539 in experiment [3] (first compound 0.01 µM); 0.616 in experiment [3] (first compound 0.03162 µM); 0.688 in experiment [3] (first compound 0.1 µM); 0.799 in experiment [4] (first compound 0.001 µM); 0.83 in experiment [4] (first compound 0.003162 µM); 0.884 in experiment [4] (first compound 0.01 µM). The relative viability in experiment [4] (first compound 0.03162 µM) came to 0.9; in experiment [4] (first compound 0.1 µM), 0.764.

With SW 900, the relative viability in experiment [2] (first compound 0.006325 µM) came out at 0.465; in experiment [2] (first compound 0.02 µM), 0.582; in experiment [2] (first compound 0.06325 µM) it was 0.408; in experiment [3] (first compound 0.001 µM), 0.618; in experiment [3] (first compound 0.003162 µM), 0.685; in experiment [3] (first compound 0.03162 µM), 0.586. The relative viability in experiment [3] (first compound 0.1 µM) is 0.72; in experiment [4] (first compound 0.001 µM), 0.769; in experiment [4] (first compound 0.003162 µM) it was 0.943; in experiment [4] (first compound 0.01 µM) it was 0.843; in experiment [4] (first compound 0.03162 µM) it was 0.899; in experiment [4] (first compound 0.1 µM), 0.803.
